Laboratory results reported in patent US20230312578A1, “6H-INDOLO[2,3-B]QUINOXALINE DERIVATIVES USEFUL IN THERAPY” (Vironova Medical AB, priority 2020, published 2023).
Like-named read-outs stand apart in the source and are kept apart here.

Tests used:
Assay type in all cases: cell-based
HL-60(TB) = assay: Human tumor cell line growth assay (SRB); details: Leukemia, 48 h; for CC50: read-out: LC50 (the source's name)
[1] = Human tumor cell line growth assay (SRB); details: human, NCI-H226 cells (NSCLC), NCI-H226, 48 h, read-out: LC50
NCI-H226 = assay: Human tumor cell line growth assay (SRB); details: Homo sapiens; NSCLC, NCI-H226, 48 h
[2] = Human tumor cell line growth assay (SRB); details: human, NCI-H322M cells (NSCLC), read-out: LC50
NCI-H322M = assay: Human tumor cell line growth assay (SRB); details: Homo sapiens, NSCLC, 48 h
[3] = Human tumor cell line growth assay (SRB); details: human, COLO 205 cells (colon), COLO 205, 48 h, read-out: LC50
COLO 205 = assay: Human tumor cell line growth assay (SRB); details: Homo sapiens; Colon, COLO 205, 48 h
[4] = Human tumor cell line growth assay (SRB); details: human, SF-295 cells (CNS), SF-295, 48 h, read-out: LC50
SF-295 = assay: Human tumor cell line growth assay (SRB); details: Homo sapiens; CNS, SF-295, 48 h
[5] = Human tumor cell line growth assay (SRB); details: human, SF-539 cells (CNS), SF-539, 48 h, read-out: LC50
SF-539 = assay: Human tumor cell line growth assay (SRB); details: Homo sapiens; CNS, SF-539, 48 h
[6] = Human tumor cell line growth assay (SRB); details: human, UACC-257 cells (melanoma), UACC-257, 48 h, read-out: LC50
UACC-257 = assay: Human tumor cell line growth assay (SRB); details: Homo sapiens; Melanoma, UACC-257, 48 h
[7] = Human tumor cell line growth assay (SRB); details: human, UACC-62 cells (melanoma), UACC-62, 48 h, read-out: LC50
UACC-62 = assay: Human tumor cell line growth assay (SRB); details: Homo sapiens; Melanoma, UACC-62, 48 h
[8] = Human tumor cell line growth assay (SRB); details: human, IGR-OV1 cells (ovarian), IGR-OV1, 48 h, read-out: LC50
IGR-OV1 = assay: Human tumor cell line growth assay (SRB); details: Homo sapiens, IGROV-1; Ovarian, IGR-OV1, 48 h
[9] = Human tumor cell line growth assay (SRB); details: human, OVCAR-3 cells (ovarian), OVCAR-3, 48 h, read-out: LC50
OVCAR-3 = assay: Human tumor cell line growth assay (SRB); details: Homo sapiens; Ovarian, OVCAR-3, 48 h
[10] = Human tumor cell line growth assay (SRB); details: human, OVCAR-4 cells (ovarian), OVCAR-4, 48 h, read-out: LC50
OVCAR-4 = assay: Human tumor cell line growth assay (SRB); details: Homo sapiens; Ovarian, OVCAR-4, 48 h
786-0 = assay: Human tumor cell line growth assay (SRB); details: Renal, 786-0, 48 h
CAKI-1 = assay: Human tumor cell line growth assay (SRB); details: Renal, CAKI-1, 48 h; for CC50: read-out: LC50 (the source's name)
RXF 393 = assay: Human tumor cell line growth assay (SRB); details: Renal, RXF 393, 48 h; for CC50: read-out: LC50 (the source's name)
SN12C = assay: Human tumor cell line growth assay (SRB); details: Renal, 48 h; for CC50: read-out: LC50 (the source's name)
TK-10 = assay: Human tumor cell line growth assay (SRB); details: Renal, TK-10, 48 h; for CC50: read-out: LC50 (the source's name)
PC-3 = assay: Human tumor cell line growth assay (SRB); details: Prostate, PC-3, 48 h; for CC50: read-out: LC50 (the source's name)
DU-145 = assay: Human tumor cell line growth assay (SRB); details: Prostate, DU-145, 48 h; for CC50: read-out: LC50 (the source's name)
MDA-MB-231/ATCC = assay: Human tumor cell line growth assay (SRB); details: Breast, 48 h; for CC50: read-out: LC50 (the source's name)
MDA-MB-468 = assay: Human tumor cell line growth assay (SRB); details: Breast, MDA-MB-468, 48 h; for CC50: read-out: LC50 (the source's name)
BT-549 = assay: Human tumor cell line growth assay (SRB); details: Breast, BT-549, 48 h; for CC50: read-out: LC50 (the source's name)
T-47D = assay: Human tumor cell line growth assay (SRB); details: T47D, Breast, 48 h; for CC50: read-out: LC50 (the source's name)
RPMI-8226 = assay: Human tumor cell line growth assay (SRB); details: Homo sapiens; Leukemia, RPMI-8226, 48 h
[11] = Human tumor cell line growth assay (SRB); details: human, SR cells (leukemia), read-out: LC50
SR = assay: Human tumor cell line growth assay (SRB); details: Homo sapiens, Leukemia, 48 h
Human tumor cell lines = assay: Human tumor cell line growth assay (SRB), summary over the panel; details: overall over the panel

Cc1cc2nc3c4ccccc4n(CCN(C)C)c3nc2cc1C [B220, 2-(2,3-dimethyl-6H-indolo [2,3-b]quinoxalin-6-yl)-N,N-dimethylethanamine, reference compound]
GI50 (HL-60(TB)): 1.99 µM
CC50 (HL-60(TB)): > 100 µM
CC50 at 48 h [1]: > 100 µM
GI50 (NCI-H226): 2.01 µM
CC50 at 48 h [2]: 31.2 µM
GI50 (NCI-H322M): 1.86 µM
CC50 at 48 h [3]: 41 µM
GI50 (COLO 205): 1.29 µM
CC50 at 48 h [4]: 42.5 µM
GI50 (SF-295): 1.39 µM
CC50 at 48 h [5]: 15 µM
GI50 (SF-539): 1.83 µM
CC50 at 48 h [6]: 5.99 µM
GI50 (UACC-257): 1.94 µM
CC50 at 48 h [7]: 5.58 µM
GI50 (UACC-62): 1.43 µM
CC50 at 48 h [8]: 72.4 µM
GI50 (IGR-OV1): 1.28 µM
CC50 at 48 h [9]: 56.8 µM
GI50 (OVCAR-3): 1.91 µM
CC50 at 48 h [10]: > 100 µM
GI50 (OVCAR-4): 2.55 µM
GI50 (786-0): 1.97 µM
LC50 (786-0): 62 µM
GI50 (CAKI-1): 0.982 µM
CC50 (CAKI-1): > 100 µM
GI50 (RXF 393): 1.56 µM
CC50 (RXF 393): 12.2 µM
GI50 (SN12C): 1.08 µM
CC50 (SN12C): > 100 µM
GI50 (TK-10): 2.97 µM
CC50 (TK-10): 71.4 µM
GI50 (PC-3): 2.01 µM
CC50 (PC-3): > 100 µM
GI50 (DU-145): 2.07 µM
CC50 (DU-145): 55.6 µM
GI50 (MDA-MB-231/ATCC): 1.76 µM
CC50 (MDA-MB-231/ATCC): 54.9 µM
GI50 (MDA-MB-468): 1.32 µM
CC50 (MDA-MB-468): 9.93 µM
GI50 (BT-549): 2.07 µM
CC50 (BT-549): 28.7 µM
GI50 (T-47D): 2.8 µM
CC50 (T-47D): > 100 µM

COc1ccc2c(c1)c1nc3cc(C)c(C)cc3nc1n2CCN(C)C [JBA-094, 2-(9-methoxy-2,3-dimethyl-6H-indolo[2,3-b]quinoxalin-6-yl)-N,N-dimethylethanamine]
GI50 (HL-60(TB)): 1.18 µM
CC50 (HL-60(TB)): > 100 µM
GI50 (RPMI-8226): 0.64 µM
CC50 at 48 h [11]: > 100 µM
GI50 (SR): 0.409 µM
CC50 at 48 h [1]: 8.2 µM
GI50 (NCI-H226): 1.24 µM
CC50 at 48 h [2]: 6.41 µM
GI50 (NCI-H322M): 0.778 µM
GI50 (COLO 205): 0.561 µM
CC50 at 48 h [4]: 5.13 µM
GI50 (SF-295): 1.11 µM
CC50 at 48 h [5]: 5.2 µM
GI50 (SF-539): 0.663 µM
CC50 at 48 h [6]: 7.97 µM
GI50 (UACC-257): 1.5 µM
CC50 at 48 h [7]: 6.7 µM
GI50 (UACC-62): 0.898 µM
CC50 at 48 h [8]: 5.41 µM
GI50 (IGR-OV1): 0.396 µM
CC50 at 48 h [9]: 6.13 µM
GI50 (OVCAR-3): 1.26 µM
CC50 at 48 h [10]: 5.56 µM
GI50 (OVCAR-4): 1.02 µM
GI50 (786-0): 1.04 µM
LC50 (786-0): 6.52 µM
GI50 (CAKI-1): 0.541 µM
CC50 (CAKI-1): 4.93 µM
GI50 (RXF 393): 1.18 µM
CC50 (RXF 393): 6.9 µM
GI50 (SN12C): 0.503 µM
CC50 (SN12C): 5.24 µM
GI50 (TK-10): 1.96 µM
CC50 (TK-10): 6.92 µM
GI50 (PC-3): 1.12 µM
CC50 (PC-3): 5.84 µM
GI50 (DU-145): 1.01 µM
CC50 (DU-145): 5.32 µM
GI50 (MDA-MB-231/ATCC): 1.14 µM
CC50 (MDA-MB-231/ATCC): 6.39 µM
GI50 (MDA-MB-468): 0.749 µM
CC50 (MDA-MB-468): 6.9 µM
GI50 (BT-549): 1.65 µM
CC50 (BT-549): 7.09 µM
GI50 (T-47D): 1.32 µM
CC50 (T-47D): > 100 µM

Cc1cc2nc3c4cc([N+](=O)[O-])ccc4n(CCN(C)C)c3nc2cc1C [JBA-185, 2-(2,3-dimethyl-9-nitro-6H-indolo[2,3-b]quinoxalin-6-yl)-N,N-dimethylethanamine]
GI50 (HL-60(TB)): 0.914 µM
CC50 (HL-60(TB)): > 100 µM
GI50 (RPMI-8226): 0.389 µM
CC50 at 48 h [11]: > 100 µM
GI50 (SR): 0.25 µM
CC50 at 48 h [1]: > 100 µM
GI50 (NCI-H226): 0.521 µM
CC50 at 48 h [2]: > 100 µM
GI50 (NCI-H322M): 0.467 µM
CC50 at 48 h [3]: > 100 µM
GI50 (COLO 205): 0.36 µM
CC50 at 48 h [4]: 8.64 µM
GI50 (SF-295): 0.388 µM
CC50 at 48 h [5]: 18.1 µM
GI50 (SF-539): 0.387 µM
CC50 at 48 h [6]: 34.4 µM
GI50 (UACC-257): 0.732 µM
CC50 at 48 h [7]: 5.78 µM
GI50 (UACC-62): 0.514 µM
CC50 at 48 h [8]: > 100 µM
GI50 (IGR-OV1): 0.357 µM
CC50 at 48 h [9]: > 100 µM
GI50 (OVCAR-3): 0.59 µM
CC50 at 48 h [10]: > 100 µM
GI50 (OVCAR-4): 0.452 µM
GI50 (786-0): 0.757 µM
LC50 (786-0): 9.56 µM
GI50 (CAKI-1): 0.251 µM
CC50 (CAKI-1): 7.48 µM
GI50 (RXF 393): 0.638 µM
CC50 (RXF 393): 5.5 µM
GI50 (SN12C): 0.479 µM
CC50 (SN12C): > 100 µM
GI50 (TK-10): 0.371 µM
CC50 (TK-10): > 100 µM
GI50 (PC-3): 0.187 µM
CC50 (PC-3): > 100 µM
GI50 (DU-145): 0.54 µM
CC50 (DU-145): > 100 µM
GI50 (MDA-MB-231/ATCC): 0.495 µM
CC50 (MDA-MB-231/ATCC): > 100 µM
GI50 (MDA-MB-468): 0.374 µM
CC50 (MDA-MB-468): 5.3 µM
GI50 (BT-549): 1.95 µM
CC50 (BT-549): > 100 µM
GI50 (T-47D): 0.499 µM
CC50 (T-47D): > 100 µM
cytotoxicity, comparison in words (Human tumor cell lines): less cytotoxic than B220
growth inhibition (GI50), comparison in words (Human tumor cell lines): lower GI50 compared to B220

Cc1cc2nc3c4cc(O)ccc4n(CCN(C)C)c3nc2cc1C [JBD-139, 6-(2-(dimethylamino)ethyl)-2,3-dimethyl-6H-indolo [2,3-b]quinoxalin-9-ol]
GI50 (HL-60(TB)): 0.356 µM
GI50 (RPMI-8226): 0.366 µM
CC50 at 48 h [11]: > 100 µM
GI50 (SR): 0.289 µM
CC50 at 48 h [1]: 19.5 µM
GI50 (NCI-H226): 1.34 µM
CC50 at 48 h [2]: > 100 µM
GI50 (NCI-H322M): 0.516 µM
CC50 at 48 h [3]: > 100 µM
GI50 (COLO 205): 0.47 µM
CC50 at 48 h [4]: > 100 µM
GI50 (SF-295): 0.756 µM
GI50 (SF-539): 0.422 µM
GI50 (UACC-257): 0.597 µM
CC50 at 48 h [7]: 6.37 µM
GI50 (UACC-62): 0.479 µM
CC50 at 48 h [8]: 98.2 µM
GI50 (IGR-OV1): 0.392 µM
GI50 (OVCAR-3): 0.97 µM
GI50 (OVCAR-4): 0.882 µM
GI50 (786-0): 0.707 µM
GI50 (CAKI-1): 0.259 µM
CC50 (CAKI-1): 5.31 µM
GI50 (RXF 393): 0.671 µM
CC50 (RXF 393): 5.96 µM
GI50 (SN12C): 0.397 µM
CC50 (SN12C): > 100 µM
GI50 (TK-10): 1.74 µM
CC50 (TK-10): > 100 µM
GI50 (PC-3): 0.491 µM
GI50 (DU-145): 0.598 µM
CC50 (DU-145): > 100 µM
GI50 (MDA-MB-231/ATCC): 0.544 µM
GI50 (MDA-MB-468): 0.518 µM
CC50 (MDA-MB-468): > 100 µM
GI50 (BT-549): 1.84 µM
CC50 (BT-549): > 100 µM
GI50 (T-47D): 0.686 µM
cytotoxicity, comparison in words (Human tumor cell lines): cytotoxicity that is higher
